Experiments:
[1] = tested on: NO production by RAW264.7 cells; test: Inhibitory activity on NO production in LPS/interferon-γ stimulated RAW264.7 cells; type: cell-based, mouse; details: LPS 5 ng/ml + interferon-γ 1 U/ml, overnight, nitrite in culture supernatant
Description: Using mouse macrophage cell line, RAW264.7 as iNOS inducible cells, percent inhibition of NO production by the test compound was measured. The test compound was dissolved in N,N-dimethylformamide to 10 mM and diluted with RPMI-1640 medium to 0.1 mM. Furthermore, it was prepared with a medium to make a final concentration from 10 μM to 10 nM by diluting 10-fold, and added to the culture. The day before the experiment, the cells were prepared with RPMI-1640 medium supplemented with heat-inactivated 10% fetal calf serum to a concentration of 5×10^5 cells/ml and plated to a 96-well plate by 1×10^5 cells/0.2 ml per well. After culturing at 37° C. under 5% CO2/95% air overnight, the medium was changed to RPMI-1640 medium supplemented with heat-inactivated 1% fetal calf serum. Thereto was added the prepared test compound, and LPS and interferon-γ were added to a final concentrations of 5 ng/ml and 1 U/ml, respectively. After incubation overnight, the concentration of nitrite ion (stable metabolite of NO) in the culture supernatant was measured and used as an index of NO production. The nitrite concentration was quantitatively measured by adding 20 μg/ml 2,3-diaminonaphtalene (DAN) by 25 μl to the culture supernatant (50 μl), incubating at room temperature for 10 min, adding 0.5N NaOH (25 μl) and measuring the fluorescence at 450 nm (excitation wavelength 365 nm).

[2] = tested on: TNF-α production by human monocyte cell line P31/FUJ; test: Inhibitory activity on TNF-α production in P31/FUJ cells; type: cell-based; details: PMA pretreated, LPS 100 ng/ml + interferon-γ 10 U/ml, overnight
Description: (§1) Using human monocyte cell line P31/FUJ (JCRB0091, establisher: Fujioka, obtained from the Human Science Research Resource Bank), the percent inhibition of cytokine production by the test compound was measured. The test compound was dissolved in N,N-dimethylformamide to 10 mM and diluted with RPMI-1640 medium to 0.1 mM. Furthermore, it was prepared with a medium to make a final concentration from 10 μM to 10 nM by diluting 10-fold, and added to the culture. The day before the experiment, the cells were prepared with RPMI-1640 medium supplemented with 10% fetal calf serum to a concentration of 2×10^6 cells/ml and plated to a 96-well plate by 2×10^5 cells/0.1 ml per well. The above-mentioned medium (0.1 ml) supplemented with 40 nM phorbol 12-myristate 13-acetate (PMA) was added and the mixture was cultured at 37° C. under 5% CO2/95% air overnight. The cells were washed with the above-mentioned medium to remove PMA and the prepared test compound was added, and LPS and interferon-γ were added to a final concentrations of 100 ng/ml and 10 U/ml, respectively. After culturing overnight, the concentration of TNF-α and IL-1β in the culture supernatant was measured. For quantitative determination of each cytokine, a quantitative determination kit by Amersham was used.

[3] = tested on: IL-1β production by human monocyte cell line P31/FUJ; test: Inhibitory activity on IL-1β production in P31/FUJ cells; type: cell-based; details: PMA pretreated, LPS 100 ng/ml + interferon-γ 10 U/ml, overnight
Description: as §1

[4] = tested on: blood NOx concentration; test: Effect against increase in blood nitrogen oxide concentration in LPS-treated mice; type: in vivo, mouse; details: female BALB/c mice, 10 mg/kg orally 1 h before LPS 10 mg/kg i.p., sera at 6 h after LPS, relative to control group
Text: When a biological defense response against infection and the like, immunopathy and the like causes NO production in the body, it is quickly metabolized into nitrous acid and nitric acid, whereby blood nitrogen oxide concentration (NOx) increases. Using test animals, the effect of the test compound against increase in blood NOx concentration was examined.
Female BALB/c mice (7-week-old) were divided into 6–8 mice per group. For the test compound group, the test compound was suspended in 0.5% aqueous methylcellulose solution and 10 mg/kg thereof was orally administered. For the control group, a solvent was similarly administered. One hour later, LPS (10 mg/kg) was intraperitoneally administered to the test compound group and the control group. At 6 h after LPS administration, blood was drawn and nitrate ion+nitrite ion concentration in sera was measured. The nitrate ion was converted to nitrous acid ion with nitrate reductase and quantitatively measured as a total nitrite ion concentration by fluorescence method using the aforementioned DAN.

[5] = Mus musculus, RAW264.7, RAW264.7 cells

IC50 [1, 5] [nM]	IC50 ([1]; RAW264.7 cells) [nM]	SMILES	also measured
240	–	CCOC(=O)C1=CCCCC1S(=O)(=O)Cc1ccccc1 (stereo not shown) [Compound 1, ethyl 6-(benzylsulfonyl)-1-cyclohexene-1-carboxylate]	–
3200	–	CCOC(=O)C1=CCCCC1S(=O)(=O)Cc1ccc(OC)cc1 (stereo not shown) [Compound 2, ethyl 6-[(4-methoxybenzyl)sulfonyl]-1-cyclohexene-1-carboxylate]	–
47	–	CCOC(=O)C1=CCCCC1S(=O)(=O)Cc1ccc(F)cc1F (stereo not shown) [Compound 3, ethyl 6-[(2,4-difluorobenzyl)sulfonyl]-1-cyclohexene-1-carboxylate]	–
–	29	CCOC(=O)C1=CCCCC1S(=O)(=O)Cc1ccc(F)cc1Cl (stereo not shown) [Compound 4, ethyl 6-[(2-chloro-4-fluorobenzyl)-sulfonyl]-1-cyclohexene-1-carboxylate]	IC50 ([2]; Homo sapiens, P31-FUJ): 200 nM; IC50 [3]: 580 nM; Blood NOx inhibition (%) [4]: 62%
–	1000	CCOC(=O)C1=CCCCC1S(=O)(=O)Cc1ccc(F)cc1Cl (stereo not drawn) [Compound 5, ethyl (−)-6-[(2-chloro-4-fluorobenzyl)sulfonyl]-1-cyclohexene-1-carboxylate]	–
–	9.3	CCOC(=O)C1=CCCCC1S(=O)(=O)Cc1ccc(F)cc1Cl (stereo not drawn) [Compound 6, ethyl (+)-6-[(2-chloro-4-fluorobenzyl)sulfonyl]-1-cyclohexene-1-carboxylate]	IC50 [2]: 150 nM; IC50 [3]: 230 nM
18	–	CCOC(=O)C1=CCOCC1S(=O)(=O)Nc1ccc(F)cc1F (stereo not shown) [Compound 7, ethyl 3-[(2,4-difluorophenyl)-sulfamoyl]-3,6-dihydro-2H-pyran-4-carboxylate]	–
3.1	–	CCOC(=O)C1=CCOCC1S(=O)(=O)Nc1ccc(F)cc1Cl (stereo not shown) [Compound 8, ethyl 3-[(2-chloro-4-fluorophenyl)sulfamoyl]-3,6-dihydro-2H-pyran-4-carboxylate]	IC50 ([2]; Homo sapiens, P31-FUJ): 20 nM; IC50 ([3]; Homo sapiens, P31-FUJ): 11 nM; Blood NOx inhibition (%) [4]: 80%

Source: patent publication US7078540B1, “Substituted aromatic-ring compounds, process for producing the same, and use” (Takeda Pharmaceutical Company Limited, priority 1999, dated 2006)
